The target of assay [1] is T1, purified pig kidney Na+/K+-ATPase (Sus scrofa, UniProt P05024).
T1 construct: Na+/K+-ATPase was purified from pig kidney outer medulla using the Jorgensen method; from tissue; host or cells: pig kidney outer medulla
Put plainly: ATPase activity of purified pig kidney Na+/K+-ATPase. In kind it is biochemical. As to conditions: 10 μM ouabain. The text has this:
Src, without the first 85 amino acid residues, was purified from sf-9 cells as described (Ma et al., 2000) and used in the initial binding assays to ensure that Src binds to the Na+/K+-ATPase, but not the lipid composition in the purified Na+/K+-ATPase preparation. In subsequent experiments (e.g., phosphorylation and activity assays), purified recombinant full-length Src from Upstate Biotechnology was used. Na+/K+-ATPase was purified from pig kidney outer medulla using the Jorgensen method (Xie et al., 1996) and the preparations with specific activities between 1200 and 1400 μmol Pi/mg/h were used.
GST fusion proteins or His-tagged proteins were expressed in Escherichia coli BL21 and purified on glutathione beads or nickel column.

Assay [2] concerns the target T2, Na+/K+-ATPase/Src complex (Sus scrofa, UniProt P05024).
T2 construct: Na+/K+-ATPase was purified from pig kidney outer medulla using the Jorgensen method; tissue Upstate Biotechnology (Src only); host or cells: pig kidney outer medulla (Na+/K+-ATPase)
Put plainly: Src pY418 phosphorylation of the Na+/K+-ATPase/Src complex (Western blot). It counts as biochemical. On the procedure:
The Src kinase activity was assayed using a commercial kit (Haas et al., 2000). To determine how Na+/K+-ATPase affects Src kinase activity, the purified Src (4.5 U) was incubated with 5 μg of the purified Na+/K+-ATPase in the Src assay buffer for 30 min at room temperature. Afterward, both control Src or the Na+/K+-ATPase-bound Src were exposed to 10 μM ouabain and Src kinase activity was determined. In other experiments, the Src pY418 was measured by anti-pY418 antibody to indicate Src activation (Ma et al., 2000). To do so, the purified Src (4.5 U) was incubated with different amounts of the purified Na+/K+-ATPase or GST-Na+/K+ATPase constructs in phosphate-buffered saline (PBS) for 30 min at 37° C. Afterward, 2 mM ATP/Mg2+ was added. The reaction continued for 5 min at 37° C. and was stopped by addition of SDS sample buffer.
The purified Na+/K+-ATPase was solubilized in 1% Triton X-100 PBS and centrifuged at 100,000×g for 30 min. The supernatant was collected for the binding assay. GST-fusion proteins (5 μg) were conjugated on glutathione beads and incubated with the solubilized Na+/K+-ATPase in 500 μl PBS in the presence of 0.5% Triton X-100 at room temperature for 30 min. The beads were washed with the same buffer for four times. The bound Na+/K+ATPase was resolved on 10% SDS-PAGE and detected by Western blot. Reciprocal binding assay using GST-Na+/K+-ATPase constructs (5 μg) and purified Src lacking of first 85 amino acids (200 ng) or His-tagged Src constructs (100 ng) was done similarly. To test if native Na+/K+-ATPase binds Src, the above experiments were repeated in the absence of Triton X-100. To make the Na+/K+-ATPase/Src complex, 2-5 μg of the purified Na+/K+ATPase was incubated with 4.5 U of Src (˜10 ng) in PBS in the absence of Triton X-100 at room temperature for 30 min. The complex was either used for the experiments directly as indicated or collected by centrifugation at 100,000×g for 30 min.

Assay [3] addresses T3, GFP-canine α1 and Src-Rluc in 293T cells (Canis lupus familiaris, UniProt P50997).
T3 construct: expressed in transfected cells; host or cells: 293T (human embryo kidney)
Put plainly: BRET analysis. In kind it is cell-based, human. On the procedure:
BRET assay was done as described by Lowry et al. (2002). Briefly, 24 h after transfection with GFP-Na+/K+-ATPase and Src-Rluc or other constructs as indicated, cells were seeded in triplicate in a 96-well microplate. After treatment with indicated concentration of ouabain, cells were exposed to equal volume of BRET analysis buffer containing 10 μM DeepBlue C, the substrate of Rluc. The emission at 410 nm (for Rluc) and 515 nm (for GFP) was immediately acquired using a Fluoroskan Ascent FL (Labsystems, Franklin, Mass.) with microplate luminometric detection. The BRET ratio was calculated as follows: (Emission at 515 nm−Background at 515 nm)/(Emission at 410 nm−Background at 410 nm), where Background signal was assessed in each experiment by measuring the signal of a sample of nontransfected cells.

The next assay deals with LLC-PK1 cells. As to the kind of experiment: Tyrosine phosphorylation of Na+/K+-ATPase-associated proteins (anti-α1 immunoprecipitation). It counts as cell-based, pig. The conditions noted are these: 1 μM ouabain, 5 min. On the procedure: FIG. 9A. LLC-PK1 cells were treated with 1 μM ouabain for 5 min, and cell lysates were immunoprecipitated with anti-α1 antibody and analyzed for tyrosine phosphorylated proteins.
(§1) Cells were lysed in RIPA buffer containing 1% Nonidet P40, 0.25% sodium deoxycholate, 150 mM NaCl, 1 mM EDTA, 1 mM phenylmethylsulfonyl fluoride, 1 mM sodium orthovanadate, 1 mM NaF, 10 μg/ml aprotinin, 10 μg/mlleupeptin, and 50 mM Tris-HCl (pH 7.4). Cell lysates were cleared by centrifugation at 16,000×g for […], and the supernatants (1 mg) were either immunoprecipitated with anti-α1 antibody or incubated with different GST-fusion proteins. The complexes were then pulled down by either protein G agarose or glutathione beads (Ma et al., 2000; Haas et al., 2002) and analyzed by Western blot.

Another assay relates to SYF and SYF+Src cells. Put plainly: Protein tyrosine phosphorylation in SYF and SYF+Src cells. It counts as cell-based, mouse. As to conditions: 100 μM ouabain 5 min. On the procedure: FIG. 9B. Both SYF and SYF+Src cells were treated with 100 μM ouabain for 5 min and analyzed as in A. Representative Western blots of three experiments are shown in both A and B.
as §1

The next assay has as its system Na+/K+-ATPase. Put plainly: Na+/K+-ATPase activity assay in cell lysates. In kind it is biochemical, pig. As to conditions: 10 μM ouabain, PY-17 and P-11 cells. On the procedure:
Na+/K+-ATPase enzymatic activity was determined Briefly, cells were collected from the cultures in Tris-EGTA buffer (pH 7.2) and briefly sonicated. The cell lysates were then treated with alamethicin at a concentration of 0.1 mg/mg of protein for 30 min at room temperature. ATPase activity was measured by the determination of the initial release of 32P from [,y-32P]ATP, and the reaction was carried out in a reaction mixture (1 ml) containing 100 mM NaCl, 25 mM KCl, 3 mM MgCl2, 1 mM EGTA, 2 mM ATP, 5 mM NaN3, and 50 mM Tris-HCl (pH 7.4). Na+/K+-ATPase activity was calculated as the difference between the activities measured in the absence of ouabain and in the presence of 1 mM ouabain. To determine the ouabain concentration curve, the alamethicin-treated cell lysates were preincubated with different concentrations of ouabain for 15 min before ATP was added to start the reaction.

Where [4] appears, read: 10 μM ouabain 15 min before centrifugation.

Regarding `C[C@@H]1O[C@@H](O[C@H]2C[C@@H](O)[C@]3(CO)[C@H]4[C@H](O)C[C@]5(C)[C@@H](C6=CC(=O)OC6)CC[C@]5(O)[C@@H]4CC[C@]3(O)C2)[C@H](O)[C@H](O)[C@H]1O` [ouabain], in assay [1], the “inhibition of the ATPase activity” value is reported as “complete inhibition”. Besides, the “Src pY418 of cosedimented complex” value in assay [2] (setting [4]) is on record as “increased the amount of Src pY418”. The “total Src cosedimented with the Na+/K+-ATPase” value in assay [2] (setting [4]) is “no effect on total Src cosedimented”. The “Src pY418 of Na+/K+-ATPase/Src complex” value in assay [2] (different concentrations of ouabain, 2 mM ATP/Mg2+, 5 min) is on record as “significantly increased the pY418 in a dose-dependent manner”; in assay [2] (ouabain in the presence of vanadate) it was “still able to stimulate pY418 of Src”. For the same compound, in assay [3], the “ouabain concentration at which significant decrease in BRET ratio was detected” value worked out at 10 nM. Also, the BRET ratio result in assay [3] (different concentrations of ouabain) was “dose-dependent decrease in the BRET ratio”. Also, in the assay with LLC-PK1 cells, the “tyrosine phosphorylation of Na+/K+-ATPase-associated proteins” value is given as “stimulated tyrosine phosphorylation”. For the same compound, the “effects of ouabain on protein tyrosine phosphorylation” value is on record as “completely abolished” with SYF and SYF+Src cells (SYF cells); “restored” with SYF and SYF+Src cells (SYF+Src cells). Also, the “inhibition of the Na+/K+-ATPase in cell lysates” value in the assay with Na+/K+-ATPase is recorded as “complete inhibition”.

These data come from patent US9663561B2, “Methods of treatment of cancer using SRC-modulating peptides” (The University of Toledo, priority 2006, dated 2017).
